Data from publication PMC12787591 (Nutrients, 2025).

Target: T1, α-amylase (α-salivary amylase)
T1 construct: gene AMY1A
Experiment: enzyme inhibition assay with soluble starch and […],5-dinitrosalicylic acid
Type: biochemical, Homo sapiens

SMILES: OC[C@H]1NC[C@H](O)[C@@H](O)[C@@H]1O [DNJ, 1-Deoxynojirimycin]
- α-Amylase Experiment / IC50: 22.69 µg/mL
